This note sets out measurements from PubChem BioAssay AID588600 (Sanford-Burnham Center for Chemical Genomics, 2011).

Each structure is given as a SMILES string.

This assay addresses Sentrin-specific protease 7 (Homo sapiens) (UniProt Q9BQF6). In words: inhibition of human SENP7 cleavage activity – biochemical, luminescence, set 2, SAR follow-up (AID 588600). Particulars: recombinant SENP7, Z-RLRGG-aminoluciferin, 40 min.

Sequence of Sentrin-specific protease 7 (Homo sapiens) (Q9BQF6 706-1050 limits assumed): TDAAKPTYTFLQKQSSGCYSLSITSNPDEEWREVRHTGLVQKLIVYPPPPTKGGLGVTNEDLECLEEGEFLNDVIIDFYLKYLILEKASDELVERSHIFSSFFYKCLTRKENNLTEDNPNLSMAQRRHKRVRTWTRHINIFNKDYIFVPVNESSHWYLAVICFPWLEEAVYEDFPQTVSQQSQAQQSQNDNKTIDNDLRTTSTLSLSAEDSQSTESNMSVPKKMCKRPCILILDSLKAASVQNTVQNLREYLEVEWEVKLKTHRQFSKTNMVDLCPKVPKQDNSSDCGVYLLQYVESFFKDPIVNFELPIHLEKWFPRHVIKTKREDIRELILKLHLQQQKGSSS

Take `CN(C)c1ccc(/C=C/c2noc(-c3ccccc3O)n2)cc1`: the IC50 was 1.65 µM.
For `COc1ccccc1OCc1nc(-c2ccccc2Cl)no1` the value was 2.08 µM.
